In experiment [1] the target is human plasma kallikrein (Homo sapiens, UniProt P03952). Kind of experiment: Kallikrein inhibition assay utilizing a quenched AMC peptide substrate (FLINT). To be noted: 30 min preincubation, 50 μM Z-Gly-Pro-Arg-AMC, 2 nM kallikrein. In kind it is biochemical. A digest of the protocol:
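Human plasma kallikrein (2 nM final) was preincubated 30 min at room temperature with compound (11-point 3-fold dilution, top 1 μM, 2% DMSO) in pH 7.5 Tris buffer with CaCl2, BSA and CHAPS. Z-Gly-Pro-Arg-AMC (50 μM final) fluorescence was read at 340/440 nm every 5 min for 30 min. IC50 came from a 4-parameter logistic fit.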

Experiment [2] concerns the target Factor XIa (Homo sapiens, UniProt P03951). In words: Factor XIa inhibition assay utilizing a fluorophore-quencher pair peptide substrate (FLINT). The experiment is classed as biochemical. The note with it: for IC50: read-out: FXIa IC50; for Ki: read-out: FXIa Ki. A digest of the protocol:
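Enzyme preincubated 30 min at room temperature with compound (11-point 3-fold dilution, top 100 nM, 2% DMSO), then 15 μM 5Fam-KLTRAETV-K5Tamra substrate added. Buffer: 50 mM Tris pH 7.5, 100 mM NaCl, 5 mM CaCl2, 0.1 mg/mL BSA, 0.03% CHAPS. Fluorescence (485/520 nm) read kinetically over 30 min; IC50 from 4-parameter logistic fit.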

Where [3] appears, read: 30 min preincubation, 5Fam-KLTRAETV-K5Tamra substrate 15 μM final, kinetic reads.
Where [4] appears, read: cells that print μM themselves in the nM column.
The mark [5] stands for this setting: cells that print μM themselves in the nM column, same assay conditions.

Read-outs that look alike come from different tables or passages of the source. Where only a bound is given, the exact number is not on record here.

Sequence of Factor XIa (P03951 388-625 limits assumed): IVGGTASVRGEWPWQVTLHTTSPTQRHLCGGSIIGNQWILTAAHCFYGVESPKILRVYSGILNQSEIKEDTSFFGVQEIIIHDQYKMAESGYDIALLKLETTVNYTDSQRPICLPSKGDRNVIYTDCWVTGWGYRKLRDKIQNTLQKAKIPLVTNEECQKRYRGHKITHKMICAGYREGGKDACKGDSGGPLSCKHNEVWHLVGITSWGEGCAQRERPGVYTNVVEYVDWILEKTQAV
Sequence of Factor XIa (P03951 19-387 partner limits assumed): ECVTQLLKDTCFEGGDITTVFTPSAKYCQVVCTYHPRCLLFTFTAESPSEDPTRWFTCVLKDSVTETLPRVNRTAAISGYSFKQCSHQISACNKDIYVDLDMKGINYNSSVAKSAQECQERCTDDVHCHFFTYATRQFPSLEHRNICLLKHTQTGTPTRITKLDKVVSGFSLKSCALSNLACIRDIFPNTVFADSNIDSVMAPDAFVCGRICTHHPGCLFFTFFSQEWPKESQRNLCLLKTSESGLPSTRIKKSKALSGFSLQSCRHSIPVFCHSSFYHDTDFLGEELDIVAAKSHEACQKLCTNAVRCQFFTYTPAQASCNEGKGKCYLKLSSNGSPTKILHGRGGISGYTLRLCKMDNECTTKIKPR
Sequence of human plasma kallikrein (P03952 391-638 limits assumed): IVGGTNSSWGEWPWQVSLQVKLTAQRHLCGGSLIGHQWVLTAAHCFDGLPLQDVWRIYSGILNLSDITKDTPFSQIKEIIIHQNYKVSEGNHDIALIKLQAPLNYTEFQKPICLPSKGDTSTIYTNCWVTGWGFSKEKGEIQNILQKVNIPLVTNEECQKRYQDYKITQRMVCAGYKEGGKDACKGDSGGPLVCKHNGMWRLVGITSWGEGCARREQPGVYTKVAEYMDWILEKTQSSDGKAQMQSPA
Sequence of human plasma kallikrein (P03952 20-390 partner limits assumed): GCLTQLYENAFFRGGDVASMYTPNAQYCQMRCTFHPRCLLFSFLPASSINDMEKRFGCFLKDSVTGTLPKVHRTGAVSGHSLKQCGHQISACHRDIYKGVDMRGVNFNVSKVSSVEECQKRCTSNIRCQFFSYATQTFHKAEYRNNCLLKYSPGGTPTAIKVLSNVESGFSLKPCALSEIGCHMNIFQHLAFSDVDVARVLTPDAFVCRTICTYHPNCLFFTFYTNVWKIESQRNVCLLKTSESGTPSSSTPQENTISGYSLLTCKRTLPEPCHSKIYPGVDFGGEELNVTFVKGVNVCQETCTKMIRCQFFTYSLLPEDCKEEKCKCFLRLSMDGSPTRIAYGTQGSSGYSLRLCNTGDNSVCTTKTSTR

By IC50 is commonly meant the midpoint of a concentration-inhibition curve. What is called Ki is a dissociation constant, usually derived from enzyme kinetics or from competition with a known ligand. For the molecule `COCCN1C(=O)c2c(cc(=O)n3c2CC[C@H]3c2ncc(-c3ccc(N)nc3F)[nH]2)-c2c(ccc(Cl)c2F)CC12CC2` (stereo in doubt) [Compound 25, (S*)-12-(5-(6-amino-2-fluoropyridin-3-yl)-1H-imidazol-2-yl)-7-chloro-8-fluoro-2-(2-methoxyethyl)-13,14-dihydro-2H-spiro[benzo[5,6]azocino[4,3-g]indolizine-3,1′-cyclopropane]-1,10(4H,12H)-dione], the IC50 was above 10000 nM in experiment [1] and 0.26 µM in experiment [2] (setting [3]). Moreover, in experiment [2], the Ki was found to be 0.13 µM.

Turning to `O=C1NC2(CC2)Cc2ccc(Cl)c(F)c2-c2cc(=O)n3c(c21)CC[C@@H]3c1ncc(-c2ccc3scnc3c2)[nH]1` (stereo in doubt) [Compound 26, (R*)-12-(5-(benzo[d]thiazol-5-yl)-1H-imidazol-2-yl)-7-chloro-8-fluoro-13,14-dihydro-2H-spiro[benzo[5,6]azocino[4,3-g]indolizine-3,1′-cyclopropane]-1,10(4H,12H)-dione], the IC50 in experiment [1] came to 70 nM; in experiment [2] (setting [3]), 0.0005 µM. In experiment [2], the Ki is 0.0003 µM.

On to `O=C1NC2(CC2)Cc2ccc(Cl)c(F)c2-c2cc(=O)n3c(c21)CC[C@H]3c1ncc(-c2ccc3scnc3c2)[nH]1` (stereo in doubt) [Compound 27, (S*)-12-(5-(benzo[d]thiazol-5-yl)-1H-imidazol-2-yl)-7-chloro-8-fluoro-13,14-dihydro-2H-spiro[benzo[5,6]azocino[4,3-g]indolizine-3,1′-cyclopropane]-1,10(4H,12H)-dione], for which the results for the IC50 in experiment [1] and in experiment [2] (setting [5]) were above 10000 nM and 2.39 µM, respectively. Moreover, the Ki in experiment [2] (setting [4]) was 1.19 µM.

In the case of `O=C1NC2(CC2)Cc2ccc(Cl)c(F)c2-c2cc(=O)n3c(c21)CC[C@@H]3c1ncc(-c2ccc3snnc3c2)[nH]1` (stereo in doubt) [Compound 30, (R*)-12-(5-(benzo[d][1,2,3]thiadiazol-5-yl)-1H-imidazol-2-yl)-7-chloro-8-fluoro-13,14-dihydro-2H-spiro[benzo[5,6]azocino[4,3-g]indolizine-3,1′-cyclopropane]-1,10(4H,12H)-dione], the IC50 worked out at 330 nM in experiment [1] and 0.0057 µM in experiment [2] (setting [3]). The Ki in experiment [2] came to 0.0029 µM.

With `O=C1NC2(CC2)Cc2ccc(Cl)c(F)c2-c2cc(=O)n3c(c21)CC[C@H]3c1ncc(-c2ccc3snnc3c2)[nH]1` (stereo in doubt) [Compound 31, (S*)-12-(5-(benzo[d][1,2,3]thiadiazol-5-yl)-1H-imidazol-2-yl)-7-chloro-8-fluoro-13,14-dihydro-2H-spiro[benzo[5,6]azocino[4,3-g]indolizine-3,1′-cyclopropane]-1,10(4H,12H)-dione], the IC50 was above 10000 nM in experiment [1] and 1.18 µM in experiment [2] (setting [5]). In experiment [2], the inhibition constant (Ki) was 0.588 µM.

For `Nc1ccc(-c2cnc([C@@H]3CCc4c5c(cc(=O)n43)-c3c(ccc(Cl)c3F)CC3(CCC3)NC5=O)[nH]2)c(F)n1` (stereo in doubt) [Compound 32, (S*)-12-(5-(6-amino-2-fluoropyridin-3-yl)-1H-imidazol-2-yl)-7-chloro-8-fluoro-13,14-dihydro-2H-spiro[benzo[5,6]azocino[4,3-g]indolizine-3,1′-cyclobutane]-1,10(4H,12H)-dione], the IC50 in experiment [1] amounted to 230 nM; in experiment [2] (setting [3]) it was 0.0007 µM. The Ki in experiment [2] was found to be 0.0004 µM.

Turning to `Nc1ccc(-c2cnc([C@H]3CCc4c5c(cc(=O)n43)-c3c(ccc(Cl)c3F)CC3(CCC3)NC5=O)[nH]2)c(F)n1` (stereo in doubt) [Compound 33, (R*)-12-(5-(6-amino-2-fluoropyridin-3-yl)-1H-imidazol-2-yl)-7-chloro-8-fluoro-13,14-dihydro-2H-spiro[benzo[5,6]azocino[4,3-g]indolizine-3,1′-cyclobutane]-1,10(4H,12H)-dione], the IC50 in experiment [1] is above 10000 nM; in experiment [2] (setting [3]), 0.237 µM. Further, the Ki in experiment [2] turned out to be 0.118 µM.

In the case of `Nc1ccc(-c2cnc([C@H]3CCc4c5c(cc(=O)n43)-c3c(ccc(Cl)c3F)CC3(CCCC3)NC5=O)[nH]2)c(F)n1` (stereo in doubt) [Compound 34, (R*)-12-(5-(6-amino-2-fluoropyridin-3-yl)-1H-imidazol-2-yl)-7-chloro-8-fluoro-13,14-dihydro-2H-spiro[benzo[5,6]azocino[4,3-g]indolizine-3,1′-cyclopentane]-1,10(4H,12H)-dione], the figures for the IC50 in experiment [1] and in experiment [2] (setting [3]) were 6210 nM and 0.0337 µM, respectively. In addition, the Ki in experiment [2] turned out to be 0.0169 µM.

With `Nc1ccc(-c2cnc([C@@H]3CCc4c5c(cc(=O)n43)-c3c(ccc(Cl)c3F)CC3(CCCC3)NC5=O)[nH]2)c(F)n1` (stereo in doubt) [Compound 35, (S*)-12-(5-(6-amino-2-fluoropyridin-3-yl)-1H-imidazol-2-yl)-7-chloro-8-fluoro-13,14-dihydro-2H-spiro[benzo[5,6]azocino[4,3-g]indolizine-3,1′-cyclopentane]-1,10(4H,12H)-dione], the values for the IC50 in experiment [1] and in experiment [2] (setting [3]) were 90 nM and 0.0004 µM, respectively. Besides, the Ki in experiment [2] was 0.0002 µM.

Regarding `CN1C(=O)c2c(cc(=O)n3c2CC[C@@H]3c2ncc(-c3ccc(N)nc3F)[nH]2)-c2c(ccc(Cl)c2F)CC12CC2` (stereo in doubt) [Compound 40, (R*)-12-(5-(6-amino-2-fluoropyridin-3-yl)-1H-imidazol-2-yl)-7-chloro-8-fluoro-2-methyl-13,14-dihydro-2H-spiro[benzo[5,6]azocino[4,3-g]indolizine-3,1′-cyclopropane]-1,10(4H,12H)-dione], the values for the IC50 in experiment [1] and in experiment [2] (setting [5]) were above 10000 nM and above 10 µM, respectively. The Ki in experiment [2] (setting [4]) is above 5 µM.

Regarding `CN1C(=O)c2c(cc(=O)n3c2CC[C@H]3c2ncc(-c3ccc(N)nc3F)[nH]2)-c2c(ccc(Cl)c2F)CC12CC2` (stereo in doubt) [Compound 41, (S*)-12-(5-(6-amino-2-fluoropyridin-3-yl)-1H-imidazol-2-yl)-7-chloro-8-fluoro-2-methyl-13,14-dihydro-2H-spiro[benzo[5,6]azocino[4,3-g]indolizine-3,1′-cyclopropane]-1,10(4H,12H)-dione], the IC50 in experiment [1] is above 10000 nM; in experiment [2] (setting [3]) it was 0.0086 µM. The Ki in experiment [2] is 0.0043 µM.

In the case of `Cn1nncc1-c1cnc([C@@H]2CCc3c4c(cc(=O)n32)-c2c(ccc(Cl)c2F)CC2(CC2)NC4=O)[nH]1` (stereo in doubt) [Compound 42, (S*)-7-chloro-8-fluoro-12-(5-(1-methyl-1H-1,2,3-triazol-5-yl)-1H-imidazol-2-yl)-13,14-dihydro-2H-spiro[benzo[5,6]azocino[4,3-g]indolizine-3,1′-cyclopropane]-1,10(4H,12H)-dione], the IC50 was above 10000 nM in experiment [1] and 0.928 µM in experiment [2] (setting [3]). Moreover, in experiment [2], the Ki came to 0.464 µM.

For the molecule `Cn1nncc1-c1cnc([C@H]2CCc3c4c(cc(=O)n32)-c2c(ccc(Cl)c2F)CC2(CC2)NC4=O)[nH]1` (stereo in doubt) [Compound 43, (R*)-7-chloro-8-fluoro-12-(5-(1-methyl-1H-1,2,3-triazol-5-yl)-1H-imidazol-2-yl)-13,14-dihydro-2H-spiro[benzo[5,6]azocino[4,3-g]indolizine-3,1′-cyclopropane]-1,10(4H,12H)-dione], the IC50 was above 10000 nM in experiment [1] and above 10 µM in experiment [2] (setting [5]). For the same molecule, the inhibition constant (Ki) in experiment [2] (setting [4]) is above 5 µM.
